Data reported in US20050266509A1, “Interaction of NMDA receptor with protein tyrosine phosphatase” (AGY Therapeutics, Inc., priority 2003, published 2005).
Entries after “also recorded” stand apart in the source; their conditions may differ.

Columns and labels:
[1] = tested on: mice; assay: Amphetamine-induced hyperactivity model (open field); conditions: 5 mg/kg SC, 60 min recording period
[2] = target: T1, PTPMEG (Homo sapiens, UniProt P29074); assay: TR-FRET phosphatase activity assay, PTPMEG; format: biochemical
T1 construct: Asp-Ser-6xHis (N); made in house; host or cells: E. coli BL21(DE3)
T1 sequence (P29074 655-911 limits assumed): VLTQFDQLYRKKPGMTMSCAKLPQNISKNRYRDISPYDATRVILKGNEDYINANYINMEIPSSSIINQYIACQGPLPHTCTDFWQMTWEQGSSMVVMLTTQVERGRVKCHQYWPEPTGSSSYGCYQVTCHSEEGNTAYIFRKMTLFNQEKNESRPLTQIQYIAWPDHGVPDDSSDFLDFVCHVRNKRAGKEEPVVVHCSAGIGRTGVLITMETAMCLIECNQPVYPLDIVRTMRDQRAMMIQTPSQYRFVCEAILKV
Procedure: Expression and Purification of PTPMEG The DNA sequence encoding the C-terminal 326 residues of PTPMEG (phosphatase domain) was subcloned into the pET-17b vector (Novagen) between the Ndel and Xhol restriction sites. An N-terminal tag consisting of Asp-Ser-6×His was incorporated at the beginning of the protein sequence. Protein expression was performed in BL21(DE3) cells at 37° C. with a 4 hour 0.5 mM IPTG induction. The cells were harvested by centrifugation and stored at −80° C. until needed for protein purification. Protein purification consisted of cell lysis by sonication, immobilized metal affinity chromatography (IMAC) on a Ni^2+-NTA column (Qiagen), followed by hydrophobic interaction chromatography (HIC) on a phenyl sepharose column (Amersham Pharmacia Biotech) and/or ion exchange chromatography (IEC) on a Q sepharose column (Amersham Pharmacia Biotech). The purified 38.3 kDa protein was buffer exchanged into 50 mM HEPES, pH 7.5 and stored at −80° C.
Phosphatase Buffer: 50 mm HEPES, pH 8; 1 mM DDT; 2 mM EDTA; 0.01% Brij solution; 10 mM MgCl2. […]
The plates are then placed in the plate reader, an Analyst HT. […] Fluorescence resonance energy transfer (FRET) from Eu-Ab to APC will only occur when they are in close proximity. […]

[3] = target: T2, CD45 (Homo sapiens, UniProt P08575); assay: FRET phosphatase assay, CD45; format: biochemical
T2 sequence (P08575 26-1306): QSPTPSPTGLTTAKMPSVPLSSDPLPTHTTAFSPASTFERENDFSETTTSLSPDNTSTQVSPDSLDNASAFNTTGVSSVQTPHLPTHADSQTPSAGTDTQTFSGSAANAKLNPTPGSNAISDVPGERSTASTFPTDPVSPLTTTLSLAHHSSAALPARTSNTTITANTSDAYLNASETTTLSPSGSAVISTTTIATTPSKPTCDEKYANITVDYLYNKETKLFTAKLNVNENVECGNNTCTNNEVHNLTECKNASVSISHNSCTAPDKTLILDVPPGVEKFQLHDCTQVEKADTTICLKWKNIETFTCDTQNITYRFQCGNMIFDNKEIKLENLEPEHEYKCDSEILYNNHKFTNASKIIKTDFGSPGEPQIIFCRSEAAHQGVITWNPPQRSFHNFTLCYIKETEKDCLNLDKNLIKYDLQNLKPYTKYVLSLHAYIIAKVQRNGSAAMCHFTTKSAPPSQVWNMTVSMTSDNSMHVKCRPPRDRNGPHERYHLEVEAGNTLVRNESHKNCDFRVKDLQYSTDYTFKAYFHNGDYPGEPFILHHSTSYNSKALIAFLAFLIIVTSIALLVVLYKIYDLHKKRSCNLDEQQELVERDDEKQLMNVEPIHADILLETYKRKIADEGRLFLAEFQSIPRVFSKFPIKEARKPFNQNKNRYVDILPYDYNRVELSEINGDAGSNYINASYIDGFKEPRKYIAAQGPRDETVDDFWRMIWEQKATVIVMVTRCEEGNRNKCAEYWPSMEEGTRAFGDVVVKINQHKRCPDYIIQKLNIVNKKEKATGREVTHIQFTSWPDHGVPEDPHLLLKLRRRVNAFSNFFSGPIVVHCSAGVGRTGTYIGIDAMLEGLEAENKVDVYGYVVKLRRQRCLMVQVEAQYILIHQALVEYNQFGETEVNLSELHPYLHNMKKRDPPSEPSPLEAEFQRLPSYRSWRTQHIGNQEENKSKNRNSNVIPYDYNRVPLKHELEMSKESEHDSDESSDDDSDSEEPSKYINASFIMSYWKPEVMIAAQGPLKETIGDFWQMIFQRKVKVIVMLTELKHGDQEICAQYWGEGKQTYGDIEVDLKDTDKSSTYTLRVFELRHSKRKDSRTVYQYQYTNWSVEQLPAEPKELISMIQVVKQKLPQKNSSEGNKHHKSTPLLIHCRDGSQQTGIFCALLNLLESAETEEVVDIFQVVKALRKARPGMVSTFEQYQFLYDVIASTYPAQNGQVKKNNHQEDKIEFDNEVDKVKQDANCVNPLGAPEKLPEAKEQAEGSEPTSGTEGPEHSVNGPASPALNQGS
Procedure: (§1) For the enzyme activity assay, 2.5 μl of compound, 12.5 μl of enzyme, and 10 μl of substrate (separated by air gaps) are added to columns 3 through 24 by the Biomek FX in a single dispense. After the dispense, the tips are washed with DMSO and water for re-use between each quadrant. Once the assay plates are set up, they are incubated at 27° C. for 45 minutes. Then 20 μl of detection buffer is added to stop the reaction and to allow the Europium antibody (Eu-Ab) and streptavidin-APC to bind to the substrate.
(§2) The plates are then placed in the plate reader, an Analyst HT. Excitation light at 360 nm is used to excite the Europium antibody with an emission at 620 nm. Fluorescence resonance energy transfer (FRET) from Eu-Ab to APC will only occur when they are in close proximity. Therefore, when an APC emission is observed at 665 nm the enzyme has been inhibited from removing the phosphate group from the substrate. The FRET assay is time-resolved (TR), where there is a delay between excitation light and collection of emission signals. This reduces the amount of stray light created by short-lived fluorescing molecules. The Analyst HT measures APC and Europium emission signals and calculates the ratio between the two intensities. Typical intensities for the Europium is ˜2000 and APC is ˜600.
(§3) The following compounds were tested by FRET against the listed phosphatases, and the IC50 were obtained. […]

[4] = target: PTPB (Homo sapiens, UniProt P23467); assay: FRET phosphatase assay, PTPB; format: biochemical
Procedure: as §1, §2, §3

[5] = target: T3, T Cell (Homo sapiens, UniProt P17706); assay: FRET phosphatase assay, T Cell; format: biochemical
T3 sequence (P17706 1-415): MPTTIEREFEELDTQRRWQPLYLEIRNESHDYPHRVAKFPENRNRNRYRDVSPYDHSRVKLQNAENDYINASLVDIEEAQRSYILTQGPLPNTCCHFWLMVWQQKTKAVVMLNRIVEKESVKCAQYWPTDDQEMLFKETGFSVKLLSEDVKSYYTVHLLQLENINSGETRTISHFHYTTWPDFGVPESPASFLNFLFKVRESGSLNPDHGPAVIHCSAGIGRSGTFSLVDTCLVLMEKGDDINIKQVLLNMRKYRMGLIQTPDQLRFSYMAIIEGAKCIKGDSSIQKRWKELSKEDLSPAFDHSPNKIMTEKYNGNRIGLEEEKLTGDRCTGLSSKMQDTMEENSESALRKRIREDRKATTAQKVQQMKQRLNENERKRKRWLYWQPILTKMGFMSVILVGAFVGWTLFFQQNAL
Procedure: as §1, §2, §3

[6] = target: T4, PTPMEG (Homo sapiens, UniProt P29074); assay: Western blot of Src/fyn Y418 phosphorylation in NR1/NR2B stable cell line transfected with active Src or fyn and PTPMEG; format: cell-based; conditions: 500 μM, 3 hours, 48 hrs post-transfection
T4 construct: expressed in transfected cells
T4 sequence (P29074 1-926): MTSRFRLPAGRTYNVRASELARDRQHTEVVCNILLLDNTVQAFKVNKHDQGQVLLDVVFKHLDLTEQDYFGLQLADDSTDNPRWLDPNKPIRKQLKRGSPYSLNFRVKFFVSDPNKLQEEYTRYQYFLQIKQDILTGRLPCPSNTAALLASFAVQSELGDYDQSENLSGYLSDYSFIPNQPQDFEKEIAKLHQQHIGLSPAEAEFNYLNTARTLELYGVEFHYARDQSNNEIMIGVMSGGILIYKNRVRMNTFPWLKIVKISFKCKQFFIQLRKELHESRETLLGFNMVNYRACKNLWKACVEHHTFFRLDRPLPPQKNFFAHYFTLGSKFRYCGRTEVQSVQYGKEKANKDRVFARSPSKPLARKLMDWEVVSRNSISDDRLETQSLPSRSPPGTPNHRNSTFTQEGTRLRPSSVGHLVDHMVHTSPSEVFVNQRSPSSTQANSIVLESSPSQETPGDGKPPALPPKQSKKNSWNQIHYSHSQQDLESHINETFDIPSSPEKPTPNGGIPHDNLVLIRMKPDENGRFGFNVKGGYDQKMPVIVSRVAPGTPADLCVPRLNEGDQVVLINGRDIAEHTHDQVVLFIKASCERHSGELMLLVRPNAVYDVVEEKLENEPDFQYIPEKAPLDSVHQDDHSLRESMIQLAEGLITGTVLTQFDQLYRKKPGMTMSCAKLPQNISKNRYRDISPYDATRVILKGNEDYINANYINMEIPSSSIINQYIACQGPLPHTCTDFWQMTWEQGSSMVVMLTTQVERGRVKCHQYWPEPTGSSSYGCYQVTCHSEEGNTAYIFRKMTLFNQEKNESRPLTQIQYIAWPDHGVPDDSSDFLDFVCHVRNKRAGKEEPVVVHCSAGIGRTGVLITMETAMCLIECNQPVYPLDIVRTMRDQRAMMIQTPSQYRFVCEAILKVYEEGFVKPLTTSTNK
Description: PTPMEG Dephosphorylates Protein Kinases Src and fyn. A stable cell line expressing the NR1 and NR2B subunits of the NMDA receptor was transiently transfected with constitutive active Src Srcor constitutive active fyn (fyn Y530F, where the tyrosine at position 530 is substituted by a phenylalanine) and PTPMEG, from a full length PTPMEG (amino-terminal myc-tag, c-terminal HA tag) expression construct in the pRK5 vector, with a CMV-driven promoter.
48 hrs post-transfection the cells were stimulated with 500 μM sodium orthovanadate, a […] for 3 hours. Cells were lysed and analyzed by western blot using a Src/fyn specific phosphoantibody (from Biosource) that recognizes the residue Y418 critical for activity for both Src and fyn. In presence of PTPMEG (identified with a c-myc antibody from Upstate) there is a dephosphorylation of Src and fyn at position Y418. This dephosphorylation is reversed by sodium orthovanadate. A pan Src antibody that recognizes total Src and fyn is used as a loading control.

[7] = target: T4, PTPMEG; assay: Western blot of NR2B and Src phosphorylation in NR1/NR2B stable cell line transfected with active Src and PTPMEG; format: cell-based; conditions: 48 h post transfection
Procedure: A stable cell line, expressing the NMDA receptor subunit NR1 together with NR2B was transiently transfected with constitutive active Src kinase and PTPMEG, wildtype and dominant negative CS mutant, respectively. Control experiments included dephostatin, a generic tyrosine phosphatase inhibitor. 48 h post transfection cells were lysed and subsequently analyzed by western blot. In presence of the active wildtype PTPMEG phosphatase, both the NR2B subunit as well as Src kinase were dephosphorylated, shown in FIG. 3. […] NR2B phosphorylation by Src kinase was detected by an NR2B phosphospecific antibody. Dephosphorylation of NR2B and Src kinase was reversed by addition of dephostatin, and unaffected in presence of the dominant negative form of PTPMEG (CS). (FIG. 5)

Chain of PTPB (P23467 1643-1997 limits assumed): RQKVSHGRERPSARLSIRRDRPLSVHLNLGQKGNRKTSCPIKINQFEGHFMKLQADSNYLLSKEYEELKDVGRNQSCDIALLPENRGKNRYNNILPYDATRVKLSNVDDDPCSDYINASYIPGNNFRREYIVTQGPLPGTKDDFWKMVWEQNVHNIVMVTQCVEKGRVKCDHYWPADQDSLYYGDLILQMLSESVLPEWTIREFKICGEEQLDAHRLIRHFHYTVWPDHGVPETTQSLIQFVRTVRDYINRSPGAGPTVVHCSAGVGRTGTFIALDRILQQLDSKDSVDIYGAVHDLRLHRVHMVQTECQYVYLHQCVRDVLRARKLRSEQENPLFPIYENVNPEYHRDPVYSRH

For C[C@H](N)Cc1ccccc1 [d-amphetamine], the “Locomotion (total distance in the open field)” value [1] was “significantly increases”.

Compound O=C(O)CN1C(=O)c2cccc3cccc1c23 [AGY- 0041763] has an IC50 [2] of 0.56 µM, an IC50 [3] greater than 500 µM and an IC50 [4] greater than 500 µM. It also gave an IC50 [5] greater than 500 µM.

For [Na+].[Na+].[Na+].[O]=[V]([O-])([O-])[O-] [sodium orthovanadate], the “Dephosphorylation of Src and fyn at position Y418 by PTPMEG” value [6] was “reversed”.

With CN(N=O)c1cc(O)ccc1O [dephostatin] the “Dephosphorylation of NR2B by PTPMEG” value ([7]; NR2B phosphospecific antibody western blot) was “reversed” and the “Dephosphorylation of Src kinase (position 418) by PTPMEG” value ([7]; anti PY418 western blot) was “reversed; also recorded: restores phosphorylation”.
